Experimental findings from patent US9737517B2, “Pharmaceutical use of hexahydro-dibenzo[a,g]quinolizine compounds” (SHANGHAI INSTITUTE OF MATERIA MEDICA, CHINESE ACADEMY OF …, priority 2013, dated 2017) are described below.

In assay [1] the test system is urethra smooth muscle. Briefly: In vitro urethra smooth muscle experiment (norepinephrine-induced contraction). Set-up: species or system Wistar rats; Urethra inhibition rate (%): concentration or dose not given beside the values. To be noted: for IC50: isolated rat prostatic urethra, norepinephrine 3×10^−4 mol/L; for Urethra inhibition rate (%): norepinephrine-induced contraction; for Aorta/Urethra: selectivity ratio of IC50 values. The method, then:
Healthy male Wistar rats were hit head to cause faint. The abdominal cavity and the pubic symphysis was quickly cut so as to quickly remove the prostatic urethra, which was immediately placed into a dish filled with 4° C. Kerbs-Henseleit solution (K-H solution). The surrounding tissue were carefully separated, and muscle strips about 3-5 mm were obtained, and the lower end was fixed onto a 20 mL of thermostatic bath and the upper end was connected onto a pressure transducer. Nutrient liquid was K-H solution, and carbogen (95% oxygen and 5% carbon dioxide) was aerated, and the bath temperature was 37° C., and resting tension applied was 0.5 g. The nutrient liquid was replaced every 6-8 mins. Until baseline stabilized, norepinephrine was added with a final concentration of 3×10^−4 mol/L in bath tube. When the contraction curve reached the highest point, it was rinsed immediately to recover to baseline levels. When baseline was stabilized, test drug with different concentrations was added respectively, and incubated 3-5 mins. 60 μL 1×10^−1 M norepinephrine was added with a final concentration of 3×10^−4 mol/L in bath tube, and the contraction curve was recorded.

Assay [2] addresses T1, α1A-AR (Homo sapiens, UniProt P35348).
T1 construct: expressed in transfected cells; host or cells: HEK293
T1 sequence (P35348 1-466): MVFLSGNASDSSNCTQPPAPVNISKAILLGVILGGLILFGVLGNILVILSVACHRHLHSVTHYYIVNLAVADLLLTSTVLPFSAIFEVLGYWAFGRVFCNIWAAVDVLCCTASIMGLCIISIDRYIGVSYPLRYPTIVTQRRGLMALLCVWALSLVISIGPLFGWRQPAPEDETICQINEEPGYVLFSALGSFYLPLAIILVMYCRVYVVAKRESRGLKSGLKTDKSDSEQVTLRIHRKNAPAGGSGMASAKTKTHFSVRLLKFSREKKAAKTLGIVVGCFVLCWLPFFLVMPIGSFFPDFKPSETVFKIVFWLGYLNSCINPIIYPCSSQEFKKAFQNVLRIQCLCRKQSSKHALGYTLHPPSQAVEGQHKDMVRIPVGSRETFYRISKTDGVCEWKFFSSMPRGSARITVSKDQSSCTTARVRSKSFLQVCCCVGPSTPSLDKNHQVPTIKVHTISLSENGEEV
Briefly: Tag-lite receptor binding assay, HEK293 cells expressing SNAP-α1A-AR. To be noted: for IC50: Tag-lite binding, HEK293 SNAP-α1A-AR; for α1B/α1A: ratio of Tag-lite binding values. An excerpt: (§1) Tag-lite assay was used to study receptor binding activity. Tag-lite assay was a combination of SNAP-Tag and HTRF technology, and was used to analyze surface receptors on live cell. SNAPs were small tag fusion proteins which could irreversibly, specifically and covalently bind to substrates via benzylmethyl, and the substrates were benzylmethyl guanine and benzylmethyl cytosine. Substrates and various dyes formed derivatives, and through covalent reaction, the dye was labeled onto SANPs. Plasmid was constructed using pSNAP and α1-AR encoding gene. After transfection into cells, N-terminal fusion protein of SNAP and α1-AR was expressed. The substrate and HTRF fluorescent dye (donor compound Lumi4-Tb) formed a derivative which reacted with SANP-α1-AR fusion protein so that Tb was labeled onto α1-AR. After adding acceptor fluorescent dye-labeled ligand, the receptor and ligand binding experiment was performed.
(§2) HEK293 cells stably expressing SNAP-α1A-AR, SNAP-α1B-AR, SNAP-α1D-AR were seeded in 3 cm dishes, and cultured for 24 hours. 100 nM Tag-lite SNAP Lumi4Tb was added and incubated for 1 h in an incubator. Cells were detached and washed with a labeling buffer for 4 times, and then was added into a 384-well plate in a volume of 10 μL per well. […] After incubation at room temperature for 1 hour, fluorescence intensity changes caused by cell receptor and ligand changes were detected using 665 nm (acceptor) and 620 nm (donor) at same time.
(§3) After incubation with different drugs, the reaction rate of cells to 1-AR fluorescein-labeled known ligand was calculated as follows: Reaction rate %=(D−B)/(S−B)*100%
(§4) The reaction rate of the same drug at different doses was tested using GraphPad Prism software by non-linear regression analysis, and the dose-response curve was obtained and Ki values was measured. Data were obtained from three separate experiments, and each experiment includes three duplicate wells.

Assay [3] deals with T2, α1B-AR (Homo sapiens, UniProt P35368).
T2 construct: expressed in transfected cells; host or cells: HEK293
T2 sequence (P35368 1-520): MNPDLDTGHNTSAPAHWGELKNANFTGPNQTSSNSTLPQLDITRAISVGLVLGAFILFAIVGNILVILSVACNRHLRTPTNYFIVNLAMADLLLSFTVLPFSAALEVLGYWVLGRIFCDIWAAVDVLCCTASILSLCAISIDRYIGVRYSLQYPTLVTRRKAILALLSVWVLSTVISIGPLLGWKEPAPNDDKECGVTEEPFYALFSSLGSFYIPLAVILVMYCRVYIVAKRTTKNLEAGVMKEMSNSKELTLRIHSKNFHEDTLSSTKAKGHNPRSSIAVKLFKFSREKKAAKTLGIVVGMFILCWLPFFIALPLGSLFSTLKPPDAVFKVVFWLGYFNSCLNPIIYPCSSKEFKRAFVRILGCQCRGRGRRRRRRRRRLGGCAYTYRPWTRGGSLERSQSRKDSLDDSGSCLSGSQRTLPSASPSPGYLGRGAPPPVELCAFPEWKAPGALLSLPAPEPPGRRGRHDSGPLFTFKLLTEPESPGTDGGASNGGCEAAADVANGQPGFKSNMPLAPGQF
The assay can be described thus: Tag-lite receptor binding assay, HEK293 cells expressing SNAP-α1B-AR.
Excerpt: as §1, §2, §3, §4

The subject of assay [4] is vascular smooth muscle (thoracic aorta). Briefly: In vitro vascular smooth muscle experiment (norepinephrine-induced contraction of thoracic aorta rings). Set-up: species or system Wistar rats. To be noted: isolated rat thoracic aorta rings, norepinephrine 10^−7 mol/L. The method, then: Healthy male Wistar rats were hit head to cause faint. The abdominal cavity was quickly cut, and the thoracic aorta was taken out. The attached tissue was separated and cut into 2-3 mm vascular rings. The experiment was carried out in the same manner as in urethral smooth muscle experiment. The resting tension applied was 1 g, and when baseline was stabilized, norepinephrine was added with a final concentration of 10^−7 mol/L in bath tube. When the contraction curve reached the highest point, rinse was performed immediately to recover to baseline levels. When baseline was stabilized, test drug with different concentrations was added respectively, and incubated 3-5 mins. 20 μL 1×10^−4 M norepinephrine was added with a final concentration of 10^−7 mol/L in bath tube, and contraction curve was recorded.

What is called IC50 is the midpoint of a concentration-inhibition curve. `COc1cc2c(cc1OC)CN1CCc3cc4c(cc3[C@@H]1C2)OCO4` [DC037009, S-(−)-2,3-methylenedioxy-10,11-dimethoxy-5,8,13,13a-tetrahydro-6H-dibenzo[a,g]quinolizine] had an IC50 in assay [1] of 1.66 nM. Further, in assay [1] (isolated rat tissues), the “selectivity (Aorta/Urethra) relative to Silodosin” value stood at 11 folds, the “selectivity (Aorta/Urethra) relative to tamsulosin” value was 1671 folds and the Aorta/Urethra stood at 873. Moreover, in assay [1] (isolated rat urethra), the “urethra suppression rate compared with positive drugs” value was “comparable to that of the positive drugs” and the “Urethra inhibition rate (%)” value was determined as 80%. In assay [2], the IC50 was determined as 2.83 nM and the α1B/α1A worked out at 45.3. The IC50 in assay [3] amounted to 128 nM. This molecule returned an IC50 in assay [4] of 1420 nM.
In the case of `COc1cc2c(cc1OCc1ccccc1)C[C@H]1c3cc4c(cc3CCN1C2)OCO4` [DC037016], the IC50 in assay [1] stood at 5.12 nM; in assay [2], 16.6 nM; in assay [3] it was 560 nM; in assay [4], 10000 nM. Further, the “Urethra inhibition rate (%)” value in assay [1] (isolated rat urethra) was 38%. Moreover, the Aorta/Urethra in assay [1] (isolated rat tissues) is 1953. Moreover, in assay [2], the α1B/α1A is 33.8.
As to `C[C@H](Cc1cc2c(c(C(N)=O)c1)N(CCCO)CC2)NCCOc1ccccc1OCC(F)(F)F` [Silodosin, reference compound], the IC50 in assay [1] worked out at 0.82 nM; in assay [2], 0.07 nM; in assay [3], 0.61 nM; in assay [4] it was 63 nM. For the same molecule, in assay [1] (isolated rat urethra), the “Urethra inhibition rate (%)” value turned out to be 88%. The Aorta/Urethra in assay [1] (isolated rat tissues) was determined as 76.8. Also, in assay [2], the α1B/α1A was determined as 8.7.
